20 compounds from patent US10174016B2 (BAYER AKTIENGESELLSCHAFT, priority 2014, dated 2019) can be followed below.

Where two headings read alike, the source gives them in different places.

The target in one assay is human P2X2/3 receptor (Homo sapiens (Human), UniProt P56373+Q9UBL9). The assay can be described thus: Intracellular calcium measurement (FLIPR, Fluo-4) of antagonist activity at human P2X2/3 receptors. The format is cell-based. Here is the method:
(§1) Intracellular Calcium Measurement to Assess Antagonist Activity at Human P2X3 and Human P2X2/3 Receptors
(§2) A fluorescent imaging plate reader (FLEX/FLIPR station; Molecular Devices) was used to monitor intracellular calcium levels using the calcium-chelating dye Fluo-4 (Molecular Probes). […] Cells expressing purinergic receptors P2X3 (human) or P2X2/3 (human) were plated at a density of 15,000 cells/well in collagen-coated 384-well plates approximately 20 hours before beginning the assay. […] The test compound was added in a volume of 5 μl and allowed to incubate for 30 min at 37° C. The final assay DMSO concentration is 1%. The agonist, α,β-Me-ATP, was added in a volume of 20 μl at a concentration representing the EC80 value. The fluorescence was measured for an interval of 90 sec at 2 sec intervals and analyzed based on the increase in peak relative fluorescence units (RFU) compared to the basal fluorescence. Peak fluorescence was used to determine the response to agonist obtained at each concentration of test compound by the following equation: % Response=100*(RFU(test compound)−RFU(control)/RFU(DMSO)−RFU(control))
(§3) The Examples were tested in triplicates per plate and mean values were plotted in Excel XLFit to determine IC50 values at the human P2X3 and human P2X2/3 receptors, percentage of maximal inhibition and the Hill coefficients.
A general note: A change in cytosolic calcium serves as a functional read-out for many receptors and channels.

In the next assay the target is human P2X3 receptor (Homo sapiens (Human), UniProt P56373). The assay can be described thus: Intracellular calcium measurement (FLIPR, Fluo-4) of antagonist activity at human P2X3 receptors. Type of assay: cell-based. To be noted: read-out: hP2X3 IC50. Here is the method:
as §1, §2, §3

[1] abbreviates: human P2X2/3, FLIPR calcium assay, agonist α,β-Me-ATP, read-out: hP2X2/3 IC50.
Setting [2] is: human P2X3, FLIPR calcium assay, agonist α,β-Me-ATP.

Chain of human P2X2/3 receptor (P56373 whole entry): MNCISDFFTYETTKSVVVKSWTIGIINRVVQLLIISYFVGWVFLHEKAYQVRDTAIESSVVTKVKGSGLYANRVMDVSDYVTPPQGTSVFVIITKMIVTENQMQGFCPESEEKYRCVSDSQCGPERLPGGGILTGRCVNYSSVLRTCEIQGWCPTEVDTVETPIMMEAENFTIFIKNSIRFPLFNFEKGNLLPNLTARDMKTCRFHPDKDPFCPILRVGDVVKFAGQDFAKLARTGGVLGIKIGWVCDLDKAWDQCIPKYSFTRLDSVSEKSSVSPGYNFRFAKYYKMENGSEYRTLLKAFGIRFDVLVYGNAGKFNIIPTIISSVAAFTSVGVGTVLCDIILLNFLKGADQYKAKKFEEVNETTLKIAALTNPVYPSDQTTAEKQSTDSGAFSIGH
Chain of human P2X2/3 receptor (Q9UBL9 whole entry): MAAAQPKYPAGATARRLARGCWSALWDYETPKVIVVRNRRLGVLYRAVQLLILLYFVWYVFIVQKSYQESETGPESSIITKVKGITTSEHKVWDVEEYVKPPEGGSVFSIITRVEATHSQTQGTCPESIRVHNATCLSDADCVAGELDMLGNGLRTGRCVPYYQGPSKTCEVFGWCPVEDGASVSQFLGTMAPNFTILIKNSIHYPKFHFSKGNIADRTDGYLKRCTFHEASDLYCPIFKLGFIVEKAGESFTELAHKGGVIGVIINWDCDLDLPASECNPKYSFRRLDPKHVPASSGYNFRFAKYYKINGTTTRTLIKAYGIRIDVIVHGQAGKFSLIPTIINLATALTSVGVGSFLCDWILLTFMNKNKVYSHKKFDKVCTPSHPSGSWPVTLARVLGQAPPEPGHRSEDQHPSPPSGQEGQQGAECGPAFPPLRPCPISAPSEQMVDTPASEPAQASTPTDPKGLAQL
Chain of human P2X3 receptor (P56373 whole entry): as the sequence (P56373 whole entry) above

For `Cc1cnc(-c2cc(OC[C@@H]3COCCN3C)cc(C(=O)N[C@H](C)c3ccc(C(F)(F)F)nc3)c2)s1` [Example 361, 3-{[(3S)-4-methylmorpholin-3-yl]methoxy}-5-(5-methyl-1,3-thiazol-2-yl)-N-{(1R)-1-[6-(trifluoromethyl)pyridin-3-yl]ethyl}benzamide], the IC50 amounted to 1250 nM at human P2X2/3 receptor (setting [1]) and 14 nM at human P2X3 receptor (setting [2]).

`CCc1cnc(-c2cc(OC[C@@H]3CCOC3)cc(C(=O)N[C@H](C)c3cnc(C(F)(F)F)nc3)c2)s1` [Example 260, 3-(5-ethyl-1,3-thiazol-2-yl)-5-[(3R)-tetrahydrofuran-3-ylmethoxy]-N-{(1R)-1-[2-(trifluoromethyl)pyrimidin-5-yl]ethyl}benzamide]: the IC50 on human P2X2/3 receptor (setting [1]) came out at 14 nM; at human P2X3 receptor (setting [2]), 2 nM.

In the case of `Cc1cnc(-c2cc(OC[C@]3(F)CCCNC3)cc(C(=O)NC(C)c3cnc(C(F)(F)F)nc3)c2)s1` (single isomer, unassigned) [Example 355], the IC50 on human P2X2/3 receptor (setting [1]) came to 956 nM; at human P2X3 receptor (setting [2]), 9 nM.

On to `Cc1cnc(-c2cc(OC[C@@H]3COCCO3)cc(C(=O)N[C@H](C)c3cnc(C(F)(F)F)nc3)c2)s1` [Example 181, 3-[(2S)-1,4-dioxan-2-ylmethoxy]-5-(5-methyl-1,3-thiazol-2-yl)-N-{(1R)-1-[2-(trifluoromethyl)pyrimidin-5-yl]ethyl}benzamide], for which the IC50 came out at 1180 nM at human P2X2/3 receptor (setting [1]) and 19 nM at human P2X3 receptor (setting [2]).

Regarding `Cc1cnc(-c2cc(OC[C@@H]3CNCCO3)cc(C(=O)N[C@H](C)c3cnc(C(F)(F)F)nc3)c2)s1` [Example 350, 3-(5-Methyl-1,3-thiazol-2-yl)-5-[(2S)-morpholin-2-ylmethoxy]-N-{(1R)-1-[2-(trifluoromethyl)pyrimidin-5-yl]ethyl}benzamide], the figures for the IC50 on human P2X2/3 receptor (setting [1]) and on human P2X3 receptor (setting [2]) were 1160 nM and 14 nM, respectively.

Take `Cc1cnc([C@@H](C)NC(=O)c2cc(OC[C@@H]3CCCO3)cc(-c3ncc(C)s3)c2)cn1` [Example 57, N-[(1R)-1-(5-Methylpyrazin-2-yl)ethyl]-3-(5-methyl-1,3-thiazol-2-yl)-5-[(2S)-tetrahydrofuran-2-ylmethoxy]benzamide]: the IC50 at human P2X2/3 receptor (setting [1]) worked out at 2840 nM; on human P2X3 receptor (setting [2]), 25 nM.

As for `Cc1ccc(CNC(=O)c2cc(OC[C@H]3CCOC3)cc(-c3ncc(C)s3)c2)nn1` [Example 66, N-[(6-Methylpyridazin-3-yl)methyl]-3-(5-methyl-1,3-thiazol-2-yl)-5-[(3S)-tetrahydrofuran-3-ylmethoxy]benzamide], the IC50 on human P2X2/3 receptor (setting [1]) came out at 6300 nM; at human P2X3 receptor (setting [2]), 35 nM.

Consider `CCc1cnc(-c2cc(OC3CCOCC3)cc(C(=O)NCc3ccc(C)nn3)c2)s1` [Example 235, 3-(5-ethyl-1,3-thiazol-2-yl)-N-[(6-methylpyridazin-3-yl)methyl]-5-(tetrahydro-2H-pyran-4-yloxy)benzamide], for which the IC50 was found to be 70 nM on human P2X2/3 receptor (setting [1]) and 18 nM at human P2X3 receptor (setting [2]).

As for `CCc1cnc(-c2cc(OC[C@@H]3CCOC3)cc(C(=O)N[C@H](C)c3cnc(C)cn3)c2)s1` [Example 259, 3-(5-ethyl-1,3-thiazol-2-yl)-N-[(1R)-1-(5-methylpyrazin-2-yl)ethyl]-5-[(3R)-tetrahydrofuran-3-ylmethoxy]benzamide], the results for the IC50 at human P2X2/3 receptor (setting [1]) and on human P2X3 receptor (setting [2]) were 102 nM and 10 nM, respectively.

For the compound `Cc1cnc(-c2cc(OC[C@H]3COCCN3C)cc(C(=O)N[C@H](C)c3cnc(C(F)(F)F)nc3)c2)s1` [Example 360], the results for the IC50 on human P2X2/3 receptor (setting [1]) and at human P2X3 receptor (setting [2]) were 455 nM and 10 nM, respectively.

Take `C[C@@H](NC(=O)c1cc(OC2CCOCC2)cc(-c2ncc(Cl)s2)c1)c1ccc(C(F)(F)F)nn1` [Example 326, 3-(5-chloro-1,3-thiazol-2-yl)-5-(tetrahydro-2H-pyran-4-yloxy)-N-{(1R)-1-[6-(trifluoromethyl)pyridazin-3-yl]ethyl}benzamide]: the IC50 came out at 378 nM on human P2X2/3 receptor (setting [1]) and 21 nM on human P2X3 receptor (setting [2]).

Regarding `CCc1cnc(-c2cc(O[C@H]3CN4CCC3CC4)cc(C(=O)N[C@H](C)c3cnc(C(F)(F)F)nc3)c2)s1` [Example 174, 3-[(3R)-1-azabicyclo[2.2.2]oct-3-yloxy]-5-(5-ethyl-1,3-thiazol-2-yl)-N-{(1R)-1-[2-(trifluoromethyl)pyrimidin-5-yl]ethyl}benzamide], the IC50 is 790 nM on human P2X2/3 receptor (hP2X2/3 IC50 (nM)) and 11 nM on human P2X3 receptor.

Regarding `Cc1cnc(-c2cc(OC3COC3)cc(C(=O)NC(C)c3ncc(F)cc3Cl)c2)s1` (stereo not shown) [Example 49, N-[1-(3-Chloro-5-fluoropyridin-2-yl)ethyl]-3-(5-methyl-1,3-thiazol-2-yl)-5-(oxetan-3-yloxy)benzamide], the IC50 at human P2X2/3 receptor (setting [1]) came to 1520 nM; at human P2X3 receptor (setting [2]), 132 nM.

`Cc1cnc(-c2cc(OCC3(F)CN(C)C3)cc(C(=O)N[C@H](C)c3cnc(C(F)(F)F)nc3)c2)s1` [Example 371, 3-[(3-fluoro-1-methylazetidin-3-yl}methoxy]-5-(5-methyl-1,3-thiazol-2-yl)-N-{(1R)-1-[2-(trifluoromethyl)pyrimidin-5-yl]ethyl}benzamide]: the IC50 is 1170 nM at human P2X2/3 receptor (setting [1]) and 24 nM at human P2X3 receptor (setting [2]).

For `CCc1cnc(-c2cc(OC[C@@H]3CN(C)CCO3)cc(C(=O)N[C@H](C)c3cnc(C(F)(F)F)nc3)c2)s1` [Example 375, 3-(5-ethyl-1,3-thiazol-2-yl)-5-{[(2S)-4-methylmorpholin-2-yl]methoxy}-N-{(1R)-1-[2-(trifluoromethyl)pyrimidin-5-yl]ethyl}benzamide], the IC50 at human P2X2/3 receptor (setting [1]) was determined as 185 nM; at human P2X3 receptor (setting [2]), 11 nM.

Take `Cc1cnc(-c2cc(OC3CCOCC3)cc(C(=O)N[C@@H](C)c3cnc(C(F)(F)F)nc3)c2)s1` [Example 145, 3-(5-Methyl-1,3-thiazol-2-yl)-5-(tetrahydro-2H-pyran-4-yloxy)-N-{(1S)-1-[2-(trifluoromethyl)pyrimidin-5-yl]ethyl}benzamide]: the results for the IC50 at human P2X2/3 receptor (setting [1]) and at human P2X3 receptor (setting [2]) were 4460 nM and 271 nM, respectively.

In the case of `Cc1ncc([C@@H](C)NC(=O)c2cc(OCC3CCOCC3)cc(-c3ncc(C(C)C)s3)c2)cn1` [Example 126, N-[(1R)-1-(2-Methylpyrimidin-5-yl)ethyl]-3-[5-(propan-2-yl)-1,3-thiazol-2-yl]-5-(tetrahydro-2H-pyran-4-ylmethoxy)benzamide], the results for the IC50 at human P2X2/3 receptor (setting [1]) and on human P2X3 receptor (setting [2]) were 532 nM and 34 nM, respectively.

For `Cc1cc(Oc2cc(C(=O)N[C@H](C)c3cnc(C)nc3)cc(-c3ncc(C)s3)c2)ccn1` [Example 106, 3-[(2-methylpyridin-4-yl)oxy]-N-[(1R)-1-(2-methylpyrimidin-5-yl)ethyl]-5-(5-methyl-1,3-thiazol-2-yl)benzamide], the IC50 at human P2X2/3 receptor (setting [1]) is 41 nM; on human P2X3 receptor (setting [2]), 16 nM.

For `CCc1cnc(-c2cc(OCC3CCOCC3)cc(C(=O)N[C@H](C)c3cnc(C)nc3)c2)s1` [Example 125, 3-(5-Ethyl-1,3-thiazol-2-yl)-N-[(1R)-1-(2-methylpyrimidin-5-yl)ethyl]-5-(tetrahydro-2H-pyran-4-ylmethoxy)benzamide], the IC50 came out at 27 nM at human P2X2/3 receptor (setting [1]) and 3 nM at human P2X3 receptor (setting [2]).

For the compound `Cc1ccc(Oc2cc(C(=O)N[C@H](C)c3cnc(C(F)(F)F)nc3)cc(-c3ncc(C)s3)c2)nn1` [Example 170, 3-[(6-methylpyridazin-3-yl)oxy]-5-(5-methyl-1,3-thiazol-2-yl)-N-{(1R)-1-[2-(trifluoromethyl)pyrimidin-5-yl]ethyl}benzamide], the IC50 came to 2020 nM on human P2X2/3 receptor (setting [1]) and 165 nM on human P2X3 receptor (setting [2]).
